Assay results from publication PMC4692482, “Structure and Stability of the Dimeric Triosephosphate Isomerase from the Thermophilic Archaeon Thermoplasma acidophilum” (PLoS ONE, 2015).

Target: T1, TaTPI (Thermoplasma acidophilum, UniProt Q9HLB6)
T1 construct: gene tpiA; full length, 216 residues, C-terminal His6-tag (pET-28a(+)), expressed in E. coli Rosetta 2(DE3)pLysS; 24,671 Da monomer; homodimer
Test: X-ray crystallography ([…] A)
Assay type: binding
Conditions: 20 mM G3P incubated with apo protein 4 h at 4 C; pH 8.5; active site (Lys9, His89, Glu137); substrate analogue

T1 sequence (Q9HLB6 whole entry): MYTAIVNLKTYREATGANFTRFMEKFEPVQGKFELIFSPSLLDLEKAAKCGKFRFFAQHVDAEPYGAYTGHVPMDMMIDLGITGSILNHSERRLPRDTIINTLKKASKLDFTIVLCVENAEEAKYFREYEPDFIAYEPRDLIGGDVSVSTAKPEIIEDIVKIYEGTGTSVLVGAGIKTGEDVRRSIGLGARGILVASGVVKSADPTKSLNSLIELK

O=P(O)(O)OC[C@H](O)CO [G3P, glycerol-3-phosphate]
X-ray crystallography (2.17 A): G3P is well positioned at the active site of TaTPI with functionally conserved residues
